We go through 69 compounds from patent US10070645B2, “N-cycloalkyl-N-{[2-(1-substitutedcycloalkyl)phenyl]methylene}-(thio)carboxamide derivatives” (BAYER CROPSCIENCE AKTIENGESELLSCHAFT, priority 2013, dated 2018).

This series is described as follows: log P by HPLC on a reversed-phase column (C 18), EEC Directive 79/831 Annex V.A8. The class given is physicochemical. To be noted: HPLC, reversed-phase column (C 18), 40° C., 0.1% aqueous formic acid and acetonitrile, linear gradient 10% to 90% acetonitrile. How it is done: In table 1, the log P values were determined in accordance with EEC Directive 79/831 Annex V.A8 by HPLC (High Performance Liquid Chromatography) on a reversed-phase column (C 18), using the method described below:
Temperature: 40° C.; Mobile phases: 0.1% aqueous formic acid and acetonitrile; linear gradient from 10% acetonitrile to 90% acetonitrile.
Calibration was carried out using unbranched alkan-2-ones (comprising 3 to 16 carbon atoms) with known log P values (determination of the log P values by the retention times using linear interpolation between two successive alkanones). lambda-max-values were determined using UV-spectra from 200 nm to 400 nm and the peak values of the chromatographic signals.

Consider `Cn1nc(C(F)F)c(C(=O)N(Cc2ccc(C3=CCOCC3)cc2C2(C)CC2)C2CC2)c1F` [I.037], for which the logP stood at 3.94. Still for that read-out and setting: the figure for `Cn1nc(C(F)F)c(C(=O)N(Cc2ccc(-c3cccc(F)c3)cc2C2(C)CC2)C2CC2)c1F` [I.038] is 4.96; for `Cn1nc(C(F)F)c(C(=O)N(Cc2ccc(-c3ccoc3)cc2C2(C)CC2)C2CC2)c1F` [I.039] it is 4.23; for `Cn1nc(C(F)F)c(C(=O)N(Cc2ccc(-c3ccsc3)cc2C2(C)CC2)C2CC2)c1F` [I.040] it is 4.61.

The compound `Cn1nc(C(F)F)c(C(=O)N(Cc2ccc(-c3ccc(F)cc3)cc2C2(C)CC2)C2CC2)c1F` [I.041] registered a logP of 4.96. The same measure, in the same setting: the figure for `Cc1ccc(F)cc1-c1ccc(CN(C(=O)c2c(C(F)F)nn(C)c2F)C2CC2)c(C2(C)CC2)c1` [I.042] is 5.31; for `C=C(C)c1ccc(CN(C(=O)c2c(C(F)F)nn(C)c2F)C2CC2)c(C2(C)CC2)c1` [I.043] it is 4.73. The same measure, in the same setting: the figure for `Cn1nc(C(F)F)c(C(=O)N(Cc2ccc(-c3cccnc3)cc2C2(C)CC2)C2CC2)c1F` [I.044] is 2.35; for `Cn1nc(C(F)F)c(C(=O)N(Cc2ccc(-c3ccncc3)cc2C2(C)CC2)C2CC2)c1F` [I.045] it is 2.00; for `Cn1nc(C(F)F)c(C(=O)N(Cc2ccc(-c3ccc4ncccc4c3)cc2C2(C)CC2)C2CC2)c1F` [I.046] it is 3.09. On the same count and under the same terms, to `Cn1nc(C(F)F)c(C(=O)N(Cc2ccc(C3CCOCC3)cc2C2(C)CC2)C2CC2)c1F` [I.047] belongs 3.87. In turn, `Cn1nc(C(F)F)c(C(=O)N(Cc2cc(F)c(F)cc2C2(C)CC2)C2CC2)c1F` [I.048] showed a log partition coefficient (logP) of 4.01. The same measure, in the same setting: to `Cn1nc(C(F)F)c(C(=O)N(Cc2cc(F)c(F)cc2C2(C)CC2)C2CC2)c1Cl` [I.049] belongs 4.16. Compound `Cn1nc(C(F)F)c(C(=S)N(Cc2cc(F)c(F)cc2C2(C)CC2)C2CC2)c1Cl` [I.050] had a logP of 4.90. On the same count and under the same terms, the figure for `Cc1cc(CN(C(=O)c2c(C(F)F)nn(C)c2F)C2CC2)c(C2(C)CC2)cc1C` [I.051] is 4.36.

`Cc1cc(CN(C(=O)c2c(C(F)F)nn(C)c2Cl)C2CC2)c(C2(C)CC2)cc1C` [I.052] displayed a logP of 4.53. `COc1cc(CN(C(=O)c2c(C(F)F)nn(C)c2F)C2CC2)c(C2(C)CC2)cc1OC` [I.053]: the logP is listed as 3.33. In turn, `COc1cc(CN(C(=O)c2c(C(F)F)nn(C)c2Cl)C2CC2)c(C2(C)CC2)cc1OC` [I.054] yielded a logP of 3.46.

On to `COc1cc(CN(C(=S)c2c(C(F)F)nn(C)c2F)C2CC2)c(C2(C)CC2)cc1OC` [I.055], for which the logP amounted to 3.96.

`COc1cc(CN(C(=S)c2c(C(F)F)nn(C)c2Cl)C2CC2)c(C2(C)CC2)cc1OC` [I.056] yielded a lipophilicity (logP) of 4.09. As for `Cn1nc(C(F)F)c(C(=O)N(Cc2cc(Br)ccc2C2(C)CC2)C2CC2)c1Cl` [I.057], the logP turned out to be 4.56. `Cn1nc(C(F)F)c(C(=O)N(Cc2cc(Br)ccc2C2(C)CC2)C2CC2)c1F` [I.058] came in with a logP of 4.36. The same measure, in the same setting: to `Cn1nc(C(F)F)c(C(=O)N(Cc2cc(C(F)(F)F)ccc2C2(C)CC2)C2CC2)c1F` [I.059] belongs 4.34. Compound `Cn1nc(C(F)F)c(C(=O)N(Cc2cc(Cl)ccc2C2(C)CC2)C2CC2)c1F` [I.060, N-[5-chloro-2-(1-methylcyclopropyl)benzyl]-N-cyclopropyl-3-(difluoromethyl)-5-fluoro-1-methyl-1H-pyrazole-4-carboxamide] showed a chromatographic logP (reversed-phase HPLC column (C 18)) of 4.26. Take `Cn1nc(C(F)F)c(C(=O)N(Cc2cc(Cl)ccc2C2(C)CC2)C2CC2)c1Cl` [I.061]: the logP came to 4.44. On the same count and under the same terms, the figure for `Cn1nc(C(F)F)c(C(=S)N(Cc2cc(Cl)ccc2C2(C)CC2)C2CC2)c1F` [I.062] is 4.82; for `Cn1nc(C(F)F)c(C(=S)N(Cc2cc(Cl)ccc2C2(C)CC2)C2CC2)c1Cl` [I.063] it is 5.03; for `Cn1nc(C(F)F)c(C(=O)N(Cc2cc(C3CC3)ccc2C2(C)CC2)C2CC2)c1F` [I.064] it is 4.56. On the same count and under the same terms, the figure for `CCc1ccc(C2(C)CC2)c(CN(C(=O)c2c(C(F)F)nn(C)c2F)C2CC2)c1` [I.065] is 4.56; for `Cn1nc(C(F)F)c(C(=S)N(Cc2cc(F)ccc2C2(C)CC2)C2CC2)c1F` [I.068] it is 4.49. On the same count and under the same terms, the figure for `Cn1nc(C(F)F)c(C(=S)N(Cc2cc(F)ccc2C2(C)CC2)C2CC2)c1Cl` [I.069] is 4.64; for `CC(C)c1ccc(C2(C)CC2)c(CN(C(=O)c2c(C(F)F)nn(C)c2F)C2CC2)c1` [I.070] it is 4.61. Take `Cc1ccc(C2(C)CC2)c(CN(C(=O)c2c(C(F)F)nn(C)c2Cl)C2CC2)c1` [I.072]: the log partition coefficient (logP) is 4.36.

`Cc1ccc(C2(C)CC2)c(CN(C(=S)c2c(C(F)F)nn(C)c2F)C2CC2)c1` [I.073] registered a log partition coefficient (logP) of 4.80. Still for that read-out and setting: to `Cc1ccc(C2(C)CC2)c(CN(C(=S)c2c(C(F)F)nn(C)c2Cl)C2CC2)c1` [I.074] belongs 4.98. Same read-out and setting: the figure for `Cc1ccc(C2(C)CC2)c(CN(C(=O)c2c(C(F)F)nn(C)c2F)C2(C)CC2)c1` [I.075] is 4.51; for `Cc1ccc(C2(C)CC2)c(CN(C(=O)c2c(C(F)F)nn(C)c2F)C2(C#N)CC2)c1` [I.076] it is 3.73; for `Cc1ccc(C2(C)CC2)c(CN(C(=O)c2c(C(F)F)nn(C)c2Cl)C2(C)CC2)c1` [I.077] it is 4.63. With `Cc1ccc(C2(C)CC2)c(CN(C(=O)c2c(C(F)F)nn(C)c2Cl)C2(C#N)CC2)c1` [I.078], the logP is given as 3.87. The same measure, in the same setting: to `C=Cc1ccc(C2(C)CC2)c(CN(C(=O)c2c(C(F)F)nn(C)c2F)C2CC2)c1` [I.080] belongs 4.34; to `Cn1nc(C(F)F)c(C(=O)N(Cc2cc(-c3csc4ccccc34)ccc2C2(C)CC2)C2CC2)c1F` [I.081], 5.48. As to `Cn1nc(C(F)F)c(C(=O)N(Cc2cc(-c3cn(C)c4ccccc34)ccc2C2(C)CC2)C2CC2)c1F` [I.082], the logP was determined as 5.00. Same read-out and setting: to `C=C(C)c1ccc(C2(C)CC2)c(CN(C(=O)c2c(C(F)F)nn(C)c2F)C2CC2)c1` [I.083] belongs 4.67. Still for that read-out and setting: the figure for `Cn1nc(C(F)F)c(C(=O)N(Cc2c(C3(C)CC3)ccc(Cl)c2F)C2CC2)c1F` [I.084] is 4.24; for `Cn1nc(C(F)F)c(C(=O)N(Cc2c(C3(C)CC3)ccc(Cl)c2Cl)C2CC2)c1F` [I.085] it is 4.51; for `Cc1ccc(C2(C)CC2)c(CN(C(=O)c2c(C(F)F)nn(C)c2F)C2CC2)c1Cl` [I.086] it is 4.51.

In the case of `Cc1ccc(C2(C)CC2)c(CN(C(=O)c2c(C(F)F)nn(C)c2F)C2CC2)c1F` [I.087], the logP amounted to 4.21. On the same count and under the same terms, to `Cn1nc(C(F)F)c(C(=O)N(Cc2c(C(F)(F)F)cccc2C2(C)CC2)C2CC2)c1F` [I.088] belongs 4.46.

The compound `Cn1nc(C(F)F)c(C(=O)N(Cc2c(F)cccc2C2(C)CC2)C2CC2)c1F` [I.089] gave a lipophilicity (logP) of 3.79. Same read-out and setting: to `C#CC1(c2ccc(Cl)cc2CN(C(=O)c2c(C(F)F)nn(C)c2F)C2CC2)CC1` [I.090] belongs 3.73.

As for `C#CC1(c2ccc(Cl)cc2CN(C(=O)c2c(C(F)F)nn(C)c2Cl)C2CC2)CC1` [I.091], the lipophilicity (logP) is 3.89. The logP values of the last two compounds are within 0.2 log units of each other. Same read-out and setting: the figure for `C#CC1(c2ccc(C)cc2CN(C(=O)c2c(C(F)F)nn(C)c2F)C2CC2)CC1` [I.092] is 3.68.

For `C#CC1(c2ccc(C)cc2CN(C(=O)c2c(C(F)F)nn(C)c2Cl)C2CC2)CC1` [I.093], the logP is recorded as 3.78. `Cn1nc(C(F)F)c(C(=O)N(Cc2cc(Cl)ccc2C2(C#N)CC2)C2CC2)c1F` [I.094] displayed a logP of 3.13. Regarding `Cn1nc(C(F)F)c(C(=O)N(Cc2cc(Cl)ccc2C2(C#N)CC2)C2CC2)c1Cl` [I.095], the log partition coefficient (logP) worked out at 3.31. `CCC1(c2ccccc2CN(C(=O)c2c(C(F)F)nn(C)c2F)C2CC2)CC1` [I.096] showed a logP of 4.21. The same measure, in the same setting: to `CCC1(c2ccccc2CN(C(=O)c2c(C(F)F)nn(C)c2Cl)C2CC2)CC1` [I.097] belongs 4.34. `CCC1(c2ccccc2CN(C(=S)c2c(C(F)F)nn(C)c2F)C2CC2)CC1` [I.098]: the log partition coefficient (logP) was determined as 4.85. The same measure, in the same setting: to `CCC1(c2ccccc2CN(C(=S)c2c(C(F)F)nn(C)c2Cl)C2CC2)CC1` [I.099] belongs 5.00; to `CCC1(c2cc(C(F)(F)F)ccc2CN(C(=O)c2c(C(F)F)nn(C)c2F)C2CC2)CC1` [I.100], 4.75. On the same count and under the same terms, to `CCC1(c2cc(C(F)(F)F)ccc2CN(C(=O)c2c(C(F)F)nn(C)c2Cl)C2CC2)CC1` [I.101] belongs 4.86; to `CCC1(c2cc(Cl)ccc2CN(C(=O)c2c(C(F)F)nn(C)c2F)C2CC2)CC1` [I.102], 4.67. Same read-out and setting: the figure for `CCC1(c2cc(Cl)ccc2CN(C(=O)c2c(C(F)F)nn(C)c2Cl)C2CC2)CC1` [I.103] is 4.82.

The compound `CCC1(c2cc(C)ccc2CN(C(=O)c2c(C(F)F)nn(C)c2F)C2CC2)CC1` [I.104] registered a lipophilicity (logP) of 4.59. The same measure, in the same setting: the figure for `CCC1(c2cc(C)ccc2CN(C(=O)c2c(C(F)F)nn(C)c2Cl)C2CC2)CC1` [I.105] is 4.74.

`CCC1(c2cc(C)c(F)cc2CN(C(=O)c2c(C(F)F)nn(C)c2Cl)C2CC2)CC1` [I.107] yielded a logP of 4.85. Same read-out and setting: to `CCC1(c2ccc(C(F)(F)F)cc2CN(C(=O)c2c(C(F)F)nn(C)c2F)C2CC2)CC1` [I.108] belongs 4.67; to `CCC1(c2ccc(C(F)(F)F)cc2CN(C(=O)c2c(C(F)F)nn(C)c2Cl)C2CC2)CC1` [I.109], 4.85; to `CCC1(c2ccc(Cl)cc2CN(C(=O)c2c(C(F)F)nn(C)c2Cl)C2CC2)CC1` [I.111], 4.77.

What is called logP is the decadic logarithm of the partition coefficient of the neutral form, usually between octanol and water. Low readings indicate a more hydrophilic compound, high ones a more lipophilic compound. The term chromatographic logP denotes a lipophilicity value derived from retention on a column. High values mean higher lipophilicity, low ones lower lipophilicity.
